Measured values published in US20260373248A1, “DEGRADABLE PEPTOIDS” (Medici Therapeutics, Inc., priority 2023, published 2026).
Non-standard residues stand in square brackets, D forms with d. Residues, ends and D or L forms follow the SMILES beside them. *: point of attachment. Gly(N-(3-decanoyloxypropyl)) = CCCCCCCCCC(=O)OCCCNCC(=O)O; N(2-decanoyloxyethyl)Gly = CCCCCCCCCC(=O)OCCNCC(=O)O; Gly(N-(CH2)3O-octanoyl) = CCCCCCCC(=O)OCCCNCC(=O)O; N(3-imidazol-1-ylpropyl)Gly = O=C(O)CNCCCn1ccnc1; Gly(N-3-morpholinopropyl) = O=C(O)CNCCCN1CCOCC1; N(2-ethylhexyl)Gly = CCCCC(CC)CNCC(=O)O; Gly(N-dodecyl) = CCCCCCCCCCCCNCC(=O)O; N(CH(CH2OH)2)Gly = O=C(O)CNC(CO)CO; N(octyl)Gly = CCCCCCCCNCC(=O)O; NHexGly = CCCCCCNCC(=O)O; For = O=C*

Tests used:
[1] = Delivery vehicle size and polydispersity by dynamic light scattering; assay type: physicochemical
How it was run: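 LNPs made by microfluidic mixing of ethanolic peptoid/DSPC/cholesterol/DMG-PEG2000 (20:1.79:7.16:1.84 by weight) with mRNA in 10 mM citrate pH 5.0 at 1:3 by volume, then dialyzed overnight at 4 °C against tris-sucrose pH 7.4. Size and PDI read by dynamic light scattering in PBS.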

[2] = tested on: mRNA; experiment: mRNA encapsulation (modified Quant-iT RiboGreen assay); assay type: physicochemical; details: for mean percent encapsulation of RNA: RiboGreen, without vs with Triton X-100; for % Encapsulation: mRNA
How it was run: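 Peptoid nanoparticles were incubated with Triton X-100 for 10 min to release entrapped mRNA, then mixed with RiboGreen reagent and read by fluorescence (ex 485 nm/em 530 nm). Percent encapsulation was derived from the ratio of fluorescence without versus with Triton X-100.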

[3] = tested on: firefly luciferase; experiment: In vivo firefly luciferase expression after intravenous injection of fLuc mRNA delivery vehicles (IVIS imaging); set-up: species or system female Balb/c mice; details: for Total Flux (luciferase expression): fLuc mRNA, intravenous, Balb/c mice; for Total Flux: mice, 2.5 ug fLuc mRNA intravenously, 6 hours post-injection
How it was run: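 Female Balb/c mice (6-8 weeks) given 2.5 ug fLuc mRNA in Nutshells IV. At 6 hours, IP D-luciferin (30 mg/mL, 10 μL/g) under isoflurane; IVIS imaging 10 minutes later, then harvested organs imaged ex vivo. Read-out: total photon flux in regions of interest.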

[4] = tested on: hEPO; experiment: Quantification of hEPO in serum after IV injection of mRNA (Human EPO ELISA); assay type: in vivo; details: Balb/c mice, 2.5 μg mRNA IV, serum after 6 hours
How it was run: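 Balb/c mice received 2.5 μg mRNA encoding human EPO by IV injection; serum was collected after 6 hours. hEPO was measured by sandwich ELISA (biotin-conjugate, streptavidin-HRP, TMB, A450) against kit standards (mIU/mL) and an external standard (ng/mL), with values interpolated and corrected for dilution.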

[5] = Peptoid quantity remaining in liver by HPLC-TOF mass spectrometry; assay type: in vivo; details: liver homogenate
How it was run: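 Whole liver weighed; 20 mg tissue bead-homogenized in IPA/MeOH (8/2) with internal standard, centrifuged, supernatant run on BEH C8 HPLC-TOF MS. Peptoid concentration derived from linear calibration curve (0.2-50 μg/g) prepared in spiked untreated liver.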

[6] = tested on: luciferase; experiment: Luciferase expression after local (intramuscular or subcutaneous) administration of mRNA; assay type: in vivo; details: mRNA 0.01 mpk, 6 hours; for IM Flux: intramuscular; for SC Flux: subcutaneous
How it was run: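 Female Balb/c mice (6-8 weeks) received fLuc mRNA in aminolipidated peptoid Nutshells at 0.01 mpk subcutaneously or intramuscularly, or 0.1 mpk intratumorally. At 6 hours, anesthetized mice were given D-luciferin IP and imaged 10 minutes later; harvested organs were also imaged and total photon flux quantified in regions of interest.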

[7] = DLS in PBS, peptoid:DSPC:Cholesterol:DMG-PEG2000 weight ratio 20:1.79:7.16:1.84, mRNA

Compound | PDI [1, 7] | Particle Size [1, 7] | mean percent encapsulation of RNA [2] | Total Flux [3] | hEPO [4] | % of injected dose remaining in liver [5] | IM Flux [6] | SC Flux [6] | other results
CCCCCCCCCC(=O)OCCCN(CC(=O)N(CC(N)=O)CC(CC)CCCC)C(=O)CN(CCCCCCCC)C(=O)CN(CC(CC)CCCC)C(=O)CN(CCCOC(=O)CCCCCCCCC)C(=O)CN(CCCCCCCC)C(=O)CNC(CO)CO (centres unmarked) [Compound 32] (H-[N(CH(CH2OH)2)Gly][N(octyl)Gly][Gly(N-(3-decanoyloxypropyl))][N(2-ethylhexyl)Gly][N(octyl)Gly][Gly(N-(3-decanoyloxypropyl))][N(2-ethylhexyl)Gly]-NH2) | 0.156 | 89.3 nm | 59.3% | 7.45E+09 p/s | 642 ng/mL | 8.18% | 1.45E+08 p/s | 9.18E+08 p/s | Particle Size ([1]; formulation recipe D22): 89.3 nm; Particle Size ([1]; formulation recipe R2): 71.0 nm; Particle Size ([1]; formulation recipe R5): 65.5 nm; Particle Size ([1]; formulation recipe R6): 68.4 nm; Particle Size ([1]; formulation recipe R7): 65.1 nm; Particle Size ([1]; formulation recipe R9): 64.9 nm; % Encapsulation ([2]; formulation recipe D22): 59.3%; % Encapsulation ([2]; formulation recipe R2): 88.2%; % Encapsulation ([2]; formulation recipe R5): 86.0%; % Encapsulation ([2]; formulation recipe R6): 93.7%; % Encapsulation ([2]; formulation recipe R7): 79.1%; % Encapsulation ([2]; formulation recipe R9): 92.7%; Total Flux (luciferase expression) ([3]; formulation recipe D22): 7.45E+09 p/s; Total Flux (luciferase expression) ([3]; formulation recipe R2): 7.39E+08 p/s; Total Flux (luciferase expression) ([3]; formulation recipe R5): 5.34E+08 p/s; Total Flux (luciferase expression) ([3]; formulation recipe R6): 9.19E+08 p/s; Total Flux (luciferase expression) ([3]; formulation recipe R7): 1.41E+09 p/s; Total Flux (luciferase expression) ([3]; formulation recipe R9): 8.16E+08 p/s
CCCCCCCCCCCCN(C=O)CC(=O)N(CCCOC(=O)CCCCCCC)CC(=O)N(CC(=O)N(CCCN1CCOCC1)CC(=O)N(CC(=O)N(CCCOC(=O)CCCCCCC)CC(=O)N(CCCCCCCCCCCC)CC(N)=O)CC(CC)CCCC)CC(CC)CCCC (centres unmarked) [Compound 116] (For-[Gly(N-dodecyl)][Gly(N-(CH2)3O-octanoyl)][N(2-ethylhexyl)Gly][Gly(N-3-morpholinopropyl)][N(2-ethylhexyl)Gly][Gly(N-(CH2)3O-octanoyl)][Gly(N-dodecyl)]-NH2) | 1.000 | 88.9 nm | 32.6% | 3.82E+09 p/s | 269 ng/mL | 15.67% | 7.83E+07 p/s | 3.53E+08 p/s | Particle Size ([1]; formulation recipe F2): 71.4 nm; % Encapsulation ([2]; formulation recipe F2): 67.8%; Total Flux (luciferase expression) ([3]; formulation recipe F2): 1.60E+09 p/s
CCCCCCCCCC(=O)OCCCN(CC(=O)N(CCCOC(=O)CCCCCCCCC)CC(=O)N(CCCCCC)CC(=O)N(CCCOC(=O)CCCCCCCCC)CC(=O)N(CCCOC(=O)CCCCCCCCC)CC(=O)N(CCCCCC)CC(N)=O)C(=O)CNCCCn1ccnc1 [Compound 109] (H-[N(3-imidazol-1-ylpropyl)Gly][Gly(N-(3-decanoyloxypropyl))][Gly(N-(3-decanoyloxypropyl))][NHexGly][Gly(N-(3-decanoyloxypropyl))][Gly(N-(3-decanoyloxypropyl))][NHexGly]-NH2) | 0.173 | 87.5 nm | 69.5% | 1.85E+09 p/s | 108 ng/mL | 48.80% | 3.97E+07 p/s | 1.00E+08 p/s | –
CCCCCCCCCC(=O)OCCCN(CC(=O)N(CC(N)=O)CC(CC)CCCC)C(=O)CN(CCCCCCCC)C(=O)CN(CC(CC)CCCC)C(=O)CN(CCCOC(=O)CCCCCCCCC)C(=O)CN(CCCCCCCC)C(=O)CN(C=O)CCCN1CCOCC1 (centres unmarked) [Compound 110] (For-[Gly(N-3-morpholinopropyl)][N(octyl)Gly][Gly(N-(3-decanoyloxypropyl))][N(2-ethylhexyl)Gly][N(octyl)Gly][Gly(N-(3-decanoyloxypropyl))][N(2-ethylhexyl)Gly]-NH2) | 0.088 | 102.9 nm | 50.5% | 2.54E+09 p/s | 333 ng/mL | 5.52% | 1.43E+08 p/s | 2.34E+08 p/s | –
CCCCCCCCCC(=O)OCCCN(CC(N)=O)C(=O)CN(CC(CC)CCCC)C(=O)CN(CCCOC(=O)CCCCCCCCC)C(=O)CN(CCCOC(=O)CCCCCCCCC)C(=O)CN(CCCOC(=O)CCCCCCCCC)C(=O)CN(CC(CC)CCCC)C(=O)CNC(CO)CO (centres unmarked) [Compound 103] (H-[N(CH(CH2OH)2)Gly][N(2-ethylhexyl)Gly][Gly(N-(3-decanoyloxypropyl))][Gly(N-(3-decanoyloxypropyl))][Gly(N-(3-decanoyloxypropyl))][N(2-ethylhexyl)Gly][Gly(N-(3-decanoyloxypropyl))]-NH2) | 0.111 | 81.5 nm | 76.8% | 8.56E+09 p/s | 961 ng/mL | bdl | 1.93E+08 p/s | 7.28E+08 p/s | –
CCCCCCCCCC(=O)OCCN(CC(N)=O)C(=O)CN(CCOC(=O)CCCCCCCCC)C(=O)CN(CC(CC)CCCC)C(=O)CN(CCOC(=O)CCCCCCCCC)C(=O)CN(CCOC(=O)CCCCCCCCC)C(=O)CN(CC(CC)CCCC)C(=O)CNC(CO)CO (centres unmarked) [Compound 105] (H-[N(CH(CH2OH)2)Gly][N(2-ethylhexyl)Gly][N(2-decanoyloxyethyl)Gly][N(2-decanoyloxyethyl)Gly][N(2-ethylhexyl)Gly][N(2-decanoyloxyethyl)Gly][N(2-decanoyloxyethyl)Gly]-NH2) | 0.150 | 75.9 nm | 73.2% | 1.05E+10 p/s | 580 ng/mL | 7.51% | 2.85E+08 p/s | 9.57E+08 p/s | Particle Size ([1]; formulation recipe D22): 75.9 nm; Particle Size ([1]; formulation recipe R1): 55.6 nm; Particle Size ([1]; formulation recipe R4): 59.6 nm; Particle Size ([1]; formulation recipe R5): 63.5 nm; Particle Size ([1]; formulation recipe R9): 64.9 nm; Particle Size ([1]; formulation recipe R10): 68.6 nm; % Encapsulation ([2]; formulation recipe D22): 73.2%; % Encapsulation ([2]; formulation recipe R1): 92.7%; % Encapsulation ([2]; formulation recipe R4): 73.1%; % Encapsulation ([2]; formulation recipe R5): 94.6%; % Encapsulation ([2]; formulation recipe R9): 94.0%; % Encapsulation ([2]; formulation recipe R10): 93.2%; Total Flux (luciferase expression) ([3]; formulation recipe D22): 1.05E+10 p/s; Total Flux (luciferase expression) ([3]; formulation recipe R1): 4.15E+08 p/s; Total Flux (luciferase expression) ([3]; formulation recipe R4): 2.47E+09 p/s; Total Flux (luciferase expression) ([3]; formulation recipe R5): 1.28E+09 p/s; Total Flux (luciferase expression) ([3]; formulation recipe R9): 1.56E+09 p/s; Total Flux (luciferase expression) ([3]; formulation recipe R10): 2.70E+09 p/s
CCCCCCCCCC(=O)OCCCN(CC(=O)N(CC(=O)N(CC(=O)N(CCCOC(=O)CCCCCCCCC)CC(=O)N(CC(N)=O)CC(CC)CCCC)CC(CC)CCCC)CC(CC)CCCC)C(=O)CN(CC(CC)CCCC)C(=O)CNCCCn1ccnc1 (centres unmarked) [Compound 107] (H-[N(3-imidazol-1-ylpropyl)Gly][N(2-ethylhexyl)Gly][Gly(N-(3-decanoyloxypropyl))][N(2-ethylhexyl)Gly][N(2-ethylhexyl)Gly][Gly(N-(3-decanoyloxypropyl))][N(2-ethylhexyl)Gly]-NH2) | 0.140 | 77.4 nm | 96.1% | 2.01E+09 p/s | 268 ng/mL | 47.20% | 7.22E+07 p/s | 7.41E+07 p/s | –
